The values below are quoted from earlier work in US20180110792A1, “COMPOSITIONS AND METHODS FOR INHIBITING GLYCATION REACTIONS” (Access Business Group International LLC, priority 2016, published 2018).

The conditions of this data set: human, in vivo.

Turning to `N=C(N)NN` [aminoguanadine], the “adverse effects in clinical trials” value is “demonstrated adverse effects in clinical trials”.
